Reference: BigSolDB 2.1

Cl.NC1CCSC1=O (racemic)
solubility (mole fraction) (in 1,4-dioxane, 293.15 K): 0.0005
solubility (mole fraction) (in 1,4-dioxane, 303.15 K): 0.000691
solubility (mole fraction) (in 1,4-dioxane, 308.15 K): 0.000783
solubility (mole fraction) (in 1,4-dioxane, 313.15 K): 0.000872
solubility (mole fraction) (in 1,4-dioxane, 323.15 K): 0.000995
solubility (mole fraction) (in 2-butanone, 283.15 K): 0.000125
solubility (mole fraction) (in 2-butanone, 293.15 K): 0.00021
solubility (mole fraction) (in 2-butanone, 303.15 K): 0.000307
solubility (mole fraction) (in 2-butanone, 313.15 K): 0.000361
solubility (mole fraction) (in 2-butanone, 323.15 K): 0.000431
solubility (mole fraction) (in acetone, 283.15 K): 0.000115
solubility (mole fraction) (in acetone, 293.15 K): 0.000202
solubility (mole fraction) (in acetone, 303.15 K): 0.00026
solubility (mole fraction) (in acetone, 313.15 K): 0.000331
solubility (mole fraction) (in acetone, 323.15 K): 0.000439
solubility (mole fraction) (in acetonitrile, 283.15 K): 4.5e-05
solubility (mole fraction) (in acetonitrile, 293.15 K): 8.7e-05
solubility (mole fraction) (in acetonitrile, 303.15 K): 0.000135
solubility (mole fraction) (in acetonitrile, 313.15 K): 0.000175
solubility (mole fraction) (in acetonitrile, 323.15 K): 0.000212
solubility (mole fraction) (in dichloromethane, 283.15 K): 6.4e-05
solubility (mole fraction) (in dichloromethane, 288.15 K): 0.000114
solubility (mole fraction) (in dichloromethane, 293.15 K): 0.000171
solubility (mole fraction) (in dichloromethane, 298.15 K): 0.000262
solubility (mole fraction) (in dichloromethane, 303.15 K): 0.000356
solubility (mole fraction) (in ethanol, 283.15 K): 0.00319
solubility (mole fraction) (in ethanol, 293.15 K): 0.00413
solubility (mole fraction) (in ethanol, 303.15 K): 0.00509
solubility (mole fraction) (in ethanol, 313.15 K): 0.00627
solubility (mole fraction) (in ethanol, 323.15 K): 0.00766
solubility (mole fraction) (in ethyl acetate, 283.15 K): 0.000238
solubility (mole fraction) (in ethyl acetate, 293.15 K): 0.000281
solubility (mole fraction) (in ethyl acetate, 303.15 K): 0.000342
solubility (mole fraction) (in ethyl acetate, 313.15 K): 0.000385
solubility (mole fraction) (in ethyl acetate, 323.15 K): 0.000458
solubility (mole fraction) (in isopropanol, 283.15 K): 0.000521
solubility (mole fraction) (in isopropanol, 293.15 K): 0.000786
solubility (mole fraction) (in isopropanol, 303.15 K): 0.00116
solubility (mole fraction) (in isopropanol, 313.15 K): 0.00154
solubility (mole fraction) (in isopropanol, 323.15 K): 0.00187
solubility (mole fraction) (in methanol, 283.15 K): 0.0154
solubility (mole fraction) (in methanol, 293.15 K): 0.0187
solubility (mole fraction) (in methanol, 303.15 K): 0.0226
solubility (mole fraction) (in methanol, 313.15 K): 0.0272
solubility (mole fraction) (in methanol, 323.15 K): 0.0326
